From ChEMBL document CHEMBL1201862, “PubChem BioAssay data set” (2004) come the findings set out here.

Each structure is given as a SMILES string. Calls of active or inactive are those of the source. Some results are limits rather than exact numbers.

For test [1], the target named is Dual specificity tyrosine-phosphorylation-regulated kinase 1A (Rattus norvegicus, UniProt Q63470). In kind it is biochemical, Homo sapiens.
Test [2] has as its target T1, Insulin-degrading enzyme (Homo sapiens, UniProt P14735).
T1 sequence (P14735 whole entry): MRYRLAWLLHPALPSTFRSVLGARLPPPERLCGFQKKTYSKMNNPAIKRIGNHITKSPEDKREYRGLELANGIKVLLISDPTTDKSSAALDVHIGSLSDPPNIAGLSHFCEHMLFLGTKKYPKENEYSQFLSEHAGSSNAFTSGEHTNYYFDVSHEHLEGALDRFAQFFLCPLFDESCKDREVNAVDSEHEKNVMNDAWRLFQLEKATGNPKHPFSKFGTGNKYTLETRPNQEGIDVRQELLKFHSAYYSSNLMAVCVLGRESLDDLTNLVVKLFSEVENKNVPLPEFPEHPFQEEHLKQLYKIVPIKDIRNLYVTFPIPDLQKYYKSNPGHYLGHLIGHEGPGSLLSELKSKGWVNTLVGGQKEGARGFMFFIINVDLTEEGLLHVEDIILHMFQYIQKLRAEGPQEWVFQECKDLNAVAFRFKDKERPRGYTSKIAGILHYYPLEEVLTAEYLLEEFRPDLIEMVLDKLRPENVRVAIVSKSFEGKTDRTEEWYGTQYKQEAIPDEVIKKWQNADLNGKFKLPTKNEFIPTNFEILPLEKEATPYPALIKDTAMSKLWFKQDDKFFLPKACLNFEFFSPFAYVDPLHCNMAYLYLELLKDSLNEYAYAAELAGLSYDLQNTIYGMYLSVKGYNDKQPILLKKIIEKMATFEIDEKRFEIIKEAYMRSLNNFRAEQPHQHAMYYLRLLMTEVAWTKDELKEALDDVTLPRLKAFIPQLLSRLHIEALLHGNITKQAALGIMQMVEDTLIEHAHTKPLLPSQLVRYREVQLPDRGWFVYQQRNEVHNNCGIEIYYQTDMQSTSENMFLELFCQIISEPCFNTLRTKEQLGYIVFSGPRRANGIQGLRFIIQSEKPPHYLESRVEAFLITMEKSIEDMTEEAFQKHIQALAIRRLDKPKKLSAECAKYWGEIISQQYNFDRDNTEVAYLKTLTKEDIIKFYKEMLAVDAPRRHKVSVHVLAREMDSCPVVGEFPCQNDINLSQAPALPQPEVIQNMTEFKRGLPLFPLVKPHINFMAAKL
Nature of the test: recombinant IDE activation, cell-free – biochemical, fluorescence polarization, counter-screen for IDE activator project, dose response (AID 588681).

A further test deals with Keap1/Nrf2 (Homo sapiens, UniProt Q14145). The test is described as follows: disruptors of Keap1 binding to Nrf2 peptide – biochemical, fluorescence polarization, cherry-picked samples, dose response (AID 588683).
In the next test the target is Beta Lactamase (Pseudomonas aeruginosa, UniProt Q932Y6). Nature of the test: BLA reporter interference, concentration series – BLA reporter cells, FRET fluorescence, artefact control for TLR9-MyD88 binding inhibitor project, dose response (AID 588341).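 Also: cell based assay in CHO-K1 cells stably expressing beta-lactamase.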 Format: cell-based.
In test [3] the test system is HEK293. Nature of the test: membrane integrity loss in HEK cells – cell-based, fluorescence, cytotoxicity control for IDE activator project, dose response (AID 588440).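 Also: cytotoxicity by LDH release measuring loss of membrane integrity.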 In kind it is functional. Particulars: Homo sapiens.
The target in test [4] is T1, Insulin-degrading enzyme. The test is described as follows: cellular IDE activation of Abeta substrate cleavage – fluorescence polarization, HEK cells, dose response (AID 588439). Format: functional, cell-based.
Test [5] deals with HEK293. The test is described as follows: optical interference in Abeta FP readout, dose response, artefact control for IDE activator project, biochemical, fluorescence polarization (AID 588442). In kind it is functional, cell-based. The note with it: Homo sapiens.
The subject of the next test is CHO. Nature of the test: CHO cell viability loss, potency – luminescence, cytotoxicity control for TLR9-MyD88 binding inhibitor project, dose response (AID 588339).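 Also: CHO cells stably coexpressing TLR9 and MyD88 fusions from primary screen; compound exposure lasted 48 hours before viability readout.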 Format: functional, cell-based, hamster. The note with it: Cricetulus griseus.
The next test addresses T2, ORF 73 (Human herpesvirus 8, UniProt O40947).
T2 sequence (O40947 whole entry): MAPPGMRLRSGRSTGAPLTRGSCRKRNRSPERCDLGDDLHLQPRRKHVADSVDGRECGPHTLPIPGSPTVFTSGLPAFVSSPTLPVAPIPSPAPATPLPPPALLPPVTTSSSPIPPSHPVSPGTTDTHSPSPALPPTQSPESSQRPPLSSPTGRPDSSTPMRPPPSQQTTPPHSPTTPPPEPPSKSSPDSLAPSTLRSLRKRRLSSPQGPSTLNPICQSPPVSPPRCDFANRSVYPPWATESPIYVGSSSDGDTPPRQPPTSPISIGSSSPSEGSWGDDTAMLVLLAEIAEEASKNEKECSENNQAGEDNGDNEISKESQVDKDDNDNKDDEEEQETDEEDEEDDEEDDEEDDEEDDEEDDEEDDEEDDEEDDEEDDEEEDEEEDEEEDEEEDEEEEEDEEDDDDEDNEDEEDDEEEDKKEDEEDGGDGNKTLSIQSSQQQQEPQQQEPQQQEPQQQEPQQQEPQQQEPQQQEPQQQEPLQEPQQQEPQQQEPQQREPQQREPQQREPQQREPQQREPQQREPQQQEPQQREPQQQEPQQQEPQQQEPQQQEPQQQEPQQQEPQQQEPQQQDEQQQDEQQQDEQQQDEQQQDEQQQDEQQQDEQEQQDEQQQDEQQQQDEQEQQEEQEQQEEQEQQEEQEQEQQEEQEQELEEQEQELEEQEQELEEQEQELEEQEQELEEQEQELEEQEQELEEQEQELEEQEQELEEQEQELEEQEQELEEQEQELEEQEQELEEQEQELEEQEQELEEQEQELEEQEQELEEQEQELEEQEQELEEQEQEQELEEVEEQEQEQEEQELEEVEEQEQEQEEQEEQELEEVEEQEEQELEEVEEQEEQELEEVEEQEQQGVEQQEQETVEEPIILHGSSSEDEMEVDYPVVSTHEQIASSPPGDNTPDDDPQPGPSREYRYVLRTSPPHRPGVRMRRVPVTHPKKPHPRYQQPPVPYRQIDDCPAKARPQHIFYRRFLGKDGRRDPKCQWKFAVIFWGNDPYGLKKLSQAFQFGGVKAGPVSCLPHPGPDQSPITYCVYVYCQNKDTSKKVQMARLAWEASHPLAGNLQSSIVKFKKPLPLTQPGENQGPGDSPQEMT
Nature of the test: KSHV LANA DNA-binding disruption – biochemical, fluorescence polarization, cherry-picked samples, dose response (AID 504725).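 Also: fluorescence polarization of a labeled DNA duplex reporting LANA DNA binding; potency is for inhibitors that block LANA binding to the DNA.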 The arrangement: species or system Human gammaherpesvirus 8.

The next test addresses Large T antigen (Simian virus 40, UniProt P03070). Format: functional, Betapolyomavirus macacae.
In test [6] the target is T3, Rac GTPase-activating protein 1 (Homo sapiens, UniProt Q9H0H5).
T3 sequence (Q9H0H5 whole entry): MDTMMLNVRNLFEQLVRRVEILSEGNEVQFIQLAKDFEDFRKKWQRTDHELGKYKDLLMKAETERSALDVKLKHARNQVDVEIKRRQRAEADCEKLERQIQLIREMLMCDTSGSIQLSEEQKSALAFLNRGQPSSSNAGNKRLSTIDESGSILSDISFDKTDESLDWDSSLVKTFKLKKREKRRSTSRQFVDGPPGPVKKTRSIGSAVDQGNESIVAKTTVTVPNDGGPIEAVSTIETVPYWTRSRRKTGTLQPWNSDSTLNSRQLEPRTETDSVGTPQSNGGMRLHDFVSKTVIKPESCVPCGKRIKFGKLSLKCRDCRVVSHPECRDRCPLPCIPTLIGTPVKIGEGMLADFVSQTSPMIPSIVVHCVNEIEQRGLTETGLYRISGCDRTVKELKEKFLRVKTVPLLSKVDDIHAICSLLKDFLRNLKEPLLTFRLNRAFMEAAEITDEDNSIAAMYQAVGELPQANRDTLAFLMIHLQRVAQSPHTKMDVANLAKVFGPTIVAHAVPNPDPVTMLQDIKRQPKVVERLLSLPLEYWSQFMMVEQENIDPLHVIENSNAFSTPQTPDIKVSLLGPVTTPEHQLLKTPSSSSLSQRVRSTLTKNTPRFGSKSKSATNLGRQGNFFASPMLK
The test is described as follows: blockers of MgcRacGAP-driven Rac1 GTP hydrolysis – biochemical, ADP Hunter fluorescence, primary and confirmatory, confirmation (AID 624330). Format: functional.

In test [7] the target is UDP-galactopyranose mutase (Mycobacterium tuberculosis, UniProt P9WIQ1). The test is described as follows: Inhibitors of Mycobacterium tuberculosis UDP-galactopyranose mutase (UGM) enzyme Measured in Biochemical System Using Plate Reader - 2105-02_Inhibitor_Dose_CherryPick_Activity. [Related pubchem assays (depositor defined):AID504439].
Test [8] has as its target Beta-2 adrenergic receptor (Homo sapiens, UniProt P07550). Nature of the test: ADRB2 activation measured by internalization – cell-based, FAP fluorogen, flow cytometry, cherry pick 1, dose response (AID 588763). In kind it is functional.
Another test deals with Phospholipase D2 (Homo sapiens, UniProt O14939). Nature of the test: cellular phospholipase D2 inhibition IC50 – cell-based, dose response (AID 602147).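 Also: cellular assay in HEK293 cells overexpressing GFP-tagged PLD2.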 In kind it is functional.
A further test concerns the target Phospholipase D1 (Homo sapiens, UniProt Q13393). Nature of the test: cellular phospholipase D1 inhibition IC50 – cell-based, dose response (AID 602151).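 Also: cellular PLD1 assay in Calu-1 cells stimulated with PMA.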 In kind it is functional.
Test [9] addresses Latent membrane protein 1 (Human herpesvirus 4 (strain B95-8), UniProt P03230). The test is described as follows: LMP1 TES1 pathway selectivity over dsRED control – imaging, HEK293T, dual-color eGFP/dsRED, cherry-picks, selectivity assay for LMP1 NF-kB inhibitor project, dose response (AID 588398). Format: functional, cell-based.
Another test relates to Vero. Nature of the test: cells. The note with it: Chlorocebus sabaeus. Format: functional.
In test [10] the test system is HEK293. The test is described as follows: EBV LMP1 TES2 canonical NF-kB signalling blockers – cell-based, HEK293, luciferase, cherry-pick, dose response (AID 588343). Format: functional. The note with it: Homo sapiens.
A further test concerns the target Melanocortin receptor 4 (Homo sapiens, UniProt P32245). The test is described as follows: inhibitors of MC4R cAMP signaling – cell-based, TR-FRET, biased antagonists, dose response (AID 602298).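 Also: antagonist potency against agonist-stimulated cAMP production.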 In kind it is functional.
Test [11] in a line: cAMP pathway inhibition in counterscreen cell line – TR-FRET cAMP detection, counter-screen for MC4R biased antagonist project, dose response (AID 602305).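 Also: U2OS cells stimulated with forskolin near its EC80 as the cAMP inducer; potency is for inhibition of forskolin-stimulated cAMP signaling.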 Format: functional, cell-based.
A short description of test [12]: HEK-293T cell viability reduction – luminescence, B-cell screen hits, cytotoxicity control for BCR NF-kB inhibitor project, dose response (AID 489021).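 Also: HEK-293T cells carrying an NF-kB luciferase reporter; cells exposed to compound for about 14 hours before viability readout.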 Format: functional, cell-based.

Sequence of Latent membrane protein 1 (P03230 whole entry): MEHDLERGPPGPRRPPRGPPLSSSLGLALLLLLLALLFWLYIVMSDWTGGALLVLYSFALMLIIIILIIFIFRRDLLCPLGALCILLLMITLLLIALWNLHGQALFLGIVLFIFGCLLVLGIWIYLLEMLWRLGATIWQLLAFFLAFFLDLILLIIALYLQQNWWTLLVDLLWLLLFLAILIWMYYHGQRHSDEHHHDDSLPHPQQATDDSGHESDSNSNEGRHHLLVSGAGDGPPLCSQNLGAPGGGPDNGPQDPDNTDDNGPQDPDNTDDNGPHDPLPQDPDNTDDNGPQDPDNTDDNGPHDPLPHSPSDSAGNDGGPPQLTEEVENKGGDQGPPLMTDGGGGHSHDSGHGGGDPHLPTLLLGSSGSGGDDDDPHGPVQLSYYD
Sequence of Phospholipase D1 (Q13393 whole entry): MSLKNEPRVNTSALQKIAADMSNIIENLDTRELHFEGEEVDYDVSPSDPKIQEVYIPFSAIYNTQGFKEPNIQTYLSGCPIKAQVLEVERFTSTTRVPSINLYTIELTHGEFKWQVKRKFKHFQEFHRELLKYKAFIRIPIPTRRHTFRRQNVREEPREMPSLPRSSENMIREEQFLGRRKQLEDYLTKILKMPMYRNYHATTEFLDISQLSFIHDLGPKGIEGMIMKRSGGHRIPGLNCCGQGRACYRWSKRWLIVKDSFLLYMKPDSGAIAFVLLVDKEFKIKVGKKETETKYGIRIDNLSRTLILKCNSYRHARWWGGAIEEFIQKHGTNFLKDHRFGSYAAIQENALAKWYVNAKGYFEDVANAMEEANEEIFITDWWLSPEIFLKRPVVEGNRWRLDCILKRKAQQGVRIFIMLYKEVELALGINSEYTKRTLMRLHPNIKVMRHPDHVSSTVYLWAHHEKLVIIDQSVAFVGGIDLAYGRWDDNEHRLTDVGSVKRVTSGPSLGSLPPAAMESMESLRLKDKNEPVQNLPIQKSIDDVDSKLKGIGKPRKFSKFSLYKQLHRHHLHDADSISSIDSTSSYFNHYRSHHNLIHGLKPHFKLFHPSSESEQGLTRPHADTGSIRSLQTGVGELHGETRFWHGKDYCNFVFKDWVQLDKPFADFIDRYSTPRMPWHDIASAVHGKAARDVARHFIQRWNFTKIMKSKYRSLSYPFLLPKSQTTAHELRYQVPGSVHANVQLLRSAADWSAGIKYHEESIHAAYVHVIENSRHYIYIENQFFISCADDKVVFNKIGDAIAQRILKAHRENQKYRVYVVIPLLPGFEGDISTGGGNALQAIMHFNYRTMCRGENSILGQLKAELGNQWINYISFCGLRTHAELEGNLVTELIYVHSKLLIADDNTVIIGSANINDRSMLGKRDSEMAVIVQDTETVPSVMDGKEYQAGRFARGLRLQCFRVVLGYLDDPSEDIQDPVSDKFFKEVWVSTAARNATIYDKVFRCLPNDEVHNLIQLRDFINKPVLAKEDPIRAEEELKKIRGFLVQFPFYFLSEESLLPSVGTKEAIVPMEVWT
Sequence of Beta-2 adrenergic receptor (P07550 whole entry): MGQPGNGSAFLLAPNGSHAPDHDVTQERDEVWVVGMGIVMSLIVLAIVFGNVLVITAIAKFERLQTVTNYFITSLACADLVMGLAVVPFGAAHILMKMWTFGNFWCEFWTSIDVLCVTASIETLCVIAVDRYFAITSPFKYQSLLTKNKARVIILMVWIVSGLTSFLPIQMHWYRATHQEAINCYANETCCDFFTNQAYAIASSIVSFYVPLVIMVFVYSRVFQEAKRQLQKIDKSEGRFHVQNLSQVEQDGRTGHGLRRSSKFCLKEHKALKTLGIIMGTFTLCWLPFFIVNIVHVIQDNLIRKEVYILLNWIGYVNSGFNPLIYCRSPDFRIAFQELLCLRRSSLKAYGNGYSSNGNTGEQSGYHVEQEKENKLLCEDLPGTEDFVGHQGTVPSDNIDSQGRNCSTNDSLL
Sequence of Keap1/Nrf2 (Q16236 whole entry): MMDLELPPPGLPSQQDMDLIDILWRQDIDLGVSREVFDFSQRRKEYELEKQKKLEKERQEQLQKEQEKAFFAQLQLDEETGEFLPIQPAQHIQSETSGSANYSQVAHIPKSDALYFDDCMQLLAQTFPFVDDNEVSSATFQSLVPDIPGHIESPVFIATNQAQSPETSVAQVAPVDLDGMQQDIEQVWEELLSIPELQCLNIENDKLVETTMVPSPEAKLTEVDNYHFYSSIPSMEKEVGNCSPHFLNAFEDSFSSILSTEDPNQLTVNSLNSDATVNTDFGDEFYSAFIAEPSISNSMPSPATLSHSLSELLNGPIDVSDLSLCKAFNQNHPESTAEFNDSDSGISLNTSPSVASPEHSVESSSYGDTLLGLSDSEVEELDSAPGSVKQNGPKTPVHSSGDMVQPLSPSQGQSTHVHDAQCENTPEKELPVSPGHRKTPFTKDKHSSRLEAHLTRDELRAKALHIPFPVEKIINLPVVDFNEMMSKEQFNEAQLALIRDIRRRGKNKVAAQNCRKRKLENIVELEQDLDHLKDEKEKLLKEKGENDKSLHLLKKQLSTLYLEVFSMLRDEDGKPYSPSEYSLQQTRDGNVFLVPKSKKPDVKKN
Sequence of Keap1/Nrf2 (Q14145 whole entry): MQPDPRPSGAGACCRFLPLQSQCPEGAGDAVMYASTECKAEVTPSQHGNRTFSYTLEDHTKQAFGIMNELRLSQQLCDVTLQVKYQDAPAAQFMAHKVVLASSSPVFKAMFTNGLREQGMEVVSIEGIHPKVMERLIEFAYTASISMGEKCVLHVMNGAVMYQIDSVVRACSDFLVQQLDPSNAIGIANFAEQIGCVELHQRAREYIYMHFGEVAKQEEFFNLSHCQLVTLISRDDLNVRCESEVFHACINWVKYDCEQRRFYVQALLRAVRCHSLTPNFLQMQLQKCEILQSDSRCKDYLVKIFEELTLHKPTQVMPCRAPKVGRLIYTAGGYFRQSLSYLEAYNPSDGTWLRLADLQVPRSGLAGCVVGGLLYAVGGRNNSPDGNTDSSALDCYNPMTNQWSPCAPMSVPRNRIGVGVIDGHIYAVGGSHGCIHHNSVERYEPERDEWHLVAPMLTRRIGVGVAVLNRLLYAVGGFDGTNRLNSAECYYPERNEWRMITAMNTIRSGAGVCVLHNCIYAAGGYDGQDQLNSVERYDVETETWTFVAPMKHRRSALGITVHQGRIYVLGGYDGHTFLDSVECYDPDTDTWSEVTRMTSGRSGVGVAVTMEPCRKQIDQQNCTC
Sequence of UDP-galactopyranose mutase (P9WIQ1 whole entry): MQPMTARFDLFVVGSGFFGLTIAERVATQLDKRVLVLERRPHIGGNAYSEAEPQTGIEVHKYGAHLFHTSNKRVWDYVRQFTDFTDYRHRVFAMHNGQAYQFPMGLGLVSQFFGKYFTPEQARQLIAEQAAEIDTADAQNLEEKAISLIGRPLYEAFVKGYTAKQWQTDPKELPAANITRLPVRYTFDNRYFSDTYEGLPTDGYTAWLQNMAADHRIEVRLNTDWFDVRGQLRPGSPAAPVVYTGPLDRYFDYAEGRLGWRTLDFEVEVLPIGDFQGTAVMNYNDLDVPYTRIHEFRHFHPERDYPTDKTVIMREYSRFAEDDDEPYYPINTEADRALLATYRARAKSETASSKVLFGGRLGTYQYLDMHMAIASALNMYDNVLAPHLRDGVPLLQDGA
Sequence of Phospholipase D2 (O14939 whole entry): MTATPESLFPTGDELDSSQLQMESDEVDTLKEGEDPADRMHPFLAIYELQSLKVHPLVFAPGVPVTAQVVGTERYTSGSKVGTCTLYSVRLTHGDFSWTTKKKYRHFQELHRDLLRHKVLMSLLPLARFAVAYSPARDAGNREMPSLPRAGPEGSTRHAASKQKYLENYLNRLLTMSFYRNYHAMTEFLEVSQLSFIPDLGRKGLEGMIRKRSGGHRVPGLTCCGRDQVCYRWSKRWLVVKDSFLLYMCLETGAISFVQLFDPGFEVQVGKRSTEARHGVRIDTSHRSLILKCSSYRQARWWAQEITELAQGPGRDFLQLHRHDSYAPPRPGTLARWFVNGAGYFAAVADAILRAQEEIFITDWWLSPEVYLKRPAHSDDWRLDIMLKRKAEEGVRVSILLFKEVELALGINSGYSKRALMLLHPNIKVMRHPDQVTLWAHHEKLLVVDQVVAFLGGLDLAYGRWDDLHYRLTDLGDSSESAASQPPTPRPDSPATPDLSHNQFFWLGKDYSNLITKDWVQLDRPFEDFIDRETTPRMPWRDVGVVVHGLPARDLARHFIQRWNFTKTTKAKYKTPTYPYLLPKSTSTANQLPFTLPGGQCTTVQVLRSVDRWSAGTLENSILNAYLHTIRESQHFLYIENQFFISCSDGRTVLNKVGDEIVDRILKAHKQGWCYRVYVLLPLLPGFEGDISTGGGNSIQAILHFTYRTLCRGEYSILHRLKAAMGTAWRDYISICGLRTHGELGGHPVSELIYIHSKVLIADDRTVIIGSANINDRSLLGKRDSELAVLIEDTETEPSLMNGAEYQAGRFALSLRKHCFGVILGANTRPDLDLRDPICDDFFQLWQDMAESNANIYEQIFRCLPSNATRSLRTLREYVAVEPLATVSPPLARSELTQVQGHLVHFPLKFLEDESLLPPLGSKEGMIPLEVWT
Sequence of Melanocortin receptor 4 (P32245 whole entry): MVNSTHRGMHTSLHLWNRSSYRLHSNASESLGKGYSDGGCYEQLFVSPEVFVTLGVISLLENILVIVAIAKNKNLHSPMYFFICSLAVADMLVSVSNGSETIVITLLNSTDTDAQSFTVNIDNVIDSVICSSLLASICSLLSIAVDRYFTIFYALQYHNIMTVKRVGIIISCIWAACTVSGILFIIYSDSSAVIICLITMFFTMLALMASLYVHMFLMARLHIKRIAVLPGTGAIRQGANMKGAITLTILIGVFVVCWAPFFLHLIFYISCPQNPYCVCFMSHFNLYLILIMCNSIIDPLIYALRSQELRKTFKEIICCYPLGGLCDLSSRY

`CC1=NCCc2c1[nH]c1cc(O)ccc21`: the AC50 in test [1] is 3.13 µM (active); on Keap1/Nrf2 it was 4.36 µM (active); on ORF 73, 1.76 µM (active); in test [7], 5.89 µM (active). Also, the EC50 on Insulin-degrading enzyme [2], on Insulin-degrading enzyme [4] and with HEK293 [5] was > 54.6 µM (inactive) in each case. In addition, the IC50 at Beta Lactamase is 7.96 µM (active); with HEK293 [3], > 89.1 µM (inactive); in the test on CHO it was > 49.8 µM (inactive); on Large T antigen it was 8.18 µM (active); in test [6], 8.73 µM (active).

In the case of `CC1(C)Cc2c(c(N3CCOCC3)nc3sc4c(NCCN)ncnc4c23)CO1`, the EC50 in [8] is 0.158 µM (active).

Consider `Cc1ccc(C(=O)N[C@@H](C)CN2CCC(n3c(=O)[nH]c4ccc(F)cc43)CC2)cc1`, for which the IC50 on Phospholipase D2 was 0.18 µM (active); on Phospholipase D1 it was 0.008 µM (active).

Consider `O=C1/C(=C/c2ccncc2)SC(=S)N1Cc1ccccc1`, for which the AC50 is 30.1 µM (active) in test [9] and 0.678 µM (active) in the test with HEK293 [10]. The CC50 in the test with Vero is > 25 µM (active).

As for `CCOc1ccc(C(=O)CCC(=O)NCC(=O)OCc2ccccc2)cc1OCC`, the IC50 (on Melanocortin receptor 4; in test [11]) was > 64.6 µM (inactive) each time.

For the compound `COc1cc(-c2[nH]c(C(=O)NCC3CCCO3)cc3c4ccccc4nc2-3)cc(OC)c1OC` (stereo not drawn), the AC50 is 44.3 µM (active) in [9] and 37.8 µM (active) in the test on HEK293 [10]. Further, in test [12], the IC50 was 51.8 µM (inactive).
